# Assay results reported in ChEMBL document CHEMBL4342421, “Current scenario of tetrazole hybrids for antibacterial activity” (Eur J Med Chem, 2019).
# System: Staphylococcus aureus
# Assay: Antimicrobial activity against Staphylococcus aureus
# Format: functional
row,Compound,MIC
1,Cc1ccc2c(c1)cc(/C=C/C(=O)c1ccc(Cl)cc1)c1nnnn12,6.25 to 100 µg/mL
2,COc1ccc(C(=O)/C=C/c2cc3ccc(C)cc3n3nnnc23)cc1,6.25 to 100 µg/mL
3,Cc1ccc2cc(/C=C/C(=O)c3ccccc3)c3nnnn3c2c1,6.25 to 100 µg/mL
4,Cc1ccc2c(c1)cc(/C=C/C(=O)c1ccccc1)c1nnnn12,6.25 to 100 µg/mL

# Next, values leading:
row,MIC,Compound
1,3.12 to 100 µg/mL,Cc1ccc2c(c1)cc(C1CC(c3ccccc3)=NN1C(N)=S)c1nnnn12 (stereo not given)
2,3.12 to 100 µg/mL,Cc1ccc2cc(C3CC(c4ccccc4)=NN3C(N)=S)c3nnnn3c2c1 (stereo not given)
3,3.12 to 100 µg/mL,Cc1ccc2cc(C3CC(c4ccccn4)=NN3C(N)=S)c3nnnn3c2c1 (stereo not given)
4,3.12 to 100 µg/mL,Cc1ccc2cc(C3CC(c4cccs4)=NN3C(N)=S)c3nnnn3c2c1 (stereo not given)
5,3.12 to 100 µg/mL,Cc1ccc2cc(C3CC(c4ccc(Cl)cc4)=NN3C(N)=S)c3nnnn3c2c1 (stereo not given)
6,3.12 to 100 µg/mL,Cc1ccc2c(c1)cc(C1CC(c3cccs3)=NN1C(N)=S)c1nnnn12 (stereo not given)

# System: Pseudomonas aeruginosa
# Assay: Antimicrobial activity against Pseudomonas aeruginosa
# Format: functional
row,Compound,MIC
1,Cc1ccc2c(c1)cc(/C=C/C(=O)c1ccc(Cl)cc1)c1nnnn12,6.25 to 100 µg/mL
2,COc1ccc(C(=O)/C=C/c2cc3ccc(C)cc3n3nnnc23)cc1,6.25 to 100 µg/mL
3,Cc1ccc2cc(/C=C/C(=O)c3ccccc3)c3nnnn3c2c1,6.25 to 100 µg/mL
4,Cc1ccc2c(c1)cc(/C=C/C(=O)c1ccccc1)c1nnnn12,6.25 to 100 µg/mL

# The remaining lines, values ahead:
row,MIC,Compound
1,3.12 to 100 µg/mL,Cc1ccc2c(c1)cc(C1CC(c3ccccc3)=NN1C(N)=S)c1nnnn12 (stereo not given)
2,3.12 to 100 µg/mL,Cc1ccc2cc(C3CC(c4ccccc4)=NN3C(N)=S)c3nnnn3c2c1 (stereo not given)
3,3.12 to 100 µg/mL,Cc1ccc2cc(C3CC(c4ccccn4)=NN3C(N)=S)c3nnnn3c2c1 (stereo not given)
4,3.12 to 100 µg/mL,Cc1ccc2cc(C3CC(c4cccs4)=NN3C(N)=S)c3nnnn3c2c1 (stereo not given)
5,3.12 to 100 µg/mL,Cc1ccc2cc(C3CC(c4ccc(Cl)cc4)=NN3C(N)=S)c3nnnn3c2c1 (stereo not given)
6,3.12 to 100 µg/mL,Cc1ccc2c(c1)cc(C1CC(c3cccs3)=NN1C(N)=S)c1nnnn12 (stereo not given)

# System: Escherichia coli
# Assay: Antimicrobial activity against Escherichia coli
# Format: functional
row,Compound,MIC
1,Cc1ccc2c(c1)cc(/C=C/C(=O)c1ccc(Cl)cc1)c1nnnn12,6.25 to 100 µg/mL
2,COc1ccc(C(=O)/C=C/c2cc3ccc(C)cc3n3nnnc23)cc1,6.25 to 100 µg/mL
3,Cc1ccc2cc(/C=C/C(=O)c3ccccc3)c3nnnn3c2c1,6.25 to 100 µg/mL
4,Cc1ccc2c(c1)cc(/C=C/C(=O)c1ccccc1)c1nnnn12,6.25 to 100 µg/mL

# Next, values leading:
row,MIC,Compound
1,3.12 to 100 µg/mL,Cc1ccc2c(c1)cc(C1CC(c3ccccc3)=NN1C(N)=S)c1nnnn12 (stereo not given)
2,3.12 to 100 µg/mL,Cc1ccc2cc(C3CC(c4ccccc4)=NN3C(N)=S)c3nnnn3c2c1 (stereo not given)
3,3.12 to 100 µg/mL,Cc1ccc2cc(C3CC(c4ccccn4)=NN3C(N)=S)c3nnnn3c2c1 (stereo not given)
4,3.12 to 100 µg/mL,Cc1ccc2cc(C3CC(c4cccs4)=NN3C(N)=S)c3nnnn3c2c1 (stereo not given)
5,3.12 to 100 µg/mL,Cc1ccc2cc(C3CC(c4ccc(Cl)cc4)=NN3C(N)=S)c3nnnn3c2c1 (stereo not given)
6,3.12 to 100 µg/mL,Cc1ccc2c(c1)cc(C1CC(c3cccs3)=NN1C(N)=S)c1nnnn12 (stereo not given)

# System: Candida albicans
# Assay: Antifungal activity against Candida albicans
# Format: functional
row,Compound,MIC
1,Cc1ccc2c(c1)cc(/C=C/C(=O)c1ccc(Cl)cc1)c1nnnn12,6.25 to 100 µg/mL
2,COc1ccc(C(=O)/C=C/c2cc3ccc(C)cc3n3nnnc23)cc1,6.25 to 100 µg/mL
3,Cc1ccc2cc(/C=C/C(=O)c3ccccc3)c3nnnn3c2c1,6.25 to 100 µg/mL
4,Cc1ccc2c(c1)cc(/C=C/C(=O)c1ccccc1)c1nnnn12,6.25 to 100 µg/mL

# Continued, values first:
row,MIC,Compound
1,3.12 to 100 µg/mL,Cc1ccc2c(c1)cc(C1CC(c3ccccc3)=NN1C(N)=S)c1nnnn12 (stereo not given)
2,3.12 to 100 µg/mL,Cc1ccc2cc(C3CC(c4ccccc4)=NN3C(N)=S)c3nnnn3c2c1 (stereo not given)
3,3.12 to 100 µg/mL,Cc1ccc2cc(C3CC(c4ccccn4)=NN3C(N)=S)c3nnnn3c2c1 (stereo not given)
4,3.12 to 100 µg/mL,Cc1ccc2cc(C3CC(c4cccs4)=NN3C(N)=S)c3nnnn3c2c1 (stereo not given)
5,3.12 to 100 µg/mL,Cc1ccc2cc(C3CC(c4ccc(Cl)cc4)=NN3C(N)=S)c3nnnn3c2c1 (stereo not given)
6,3.12 to 100 µg/mL,Cc1ccc2c(c1)cc(C1CC(c3cccs3)=NN1C(N)=S)c1nnnn12 (stereo not given)

# System: Aspergillus niger
# Assay: Antifungal activity against Aspergillus niger
# Format: functional
row,Compound,MIC
1,Cc1ccc2c(c1)cc(/C=C/C(=O)c1ccc(Cl)cc1)c1nnnn12,6.25 to 100 µg/mL
2,COc1ccc(C(=O)/C=C/c2cc3ccc(C)cc3n3nnnc23)cc1,6.25 to 100 µg/mL
3,Cc1ccc2cc(/C=C/C(=O)c3ccccc3)c3nnnn3c2c1,6.25 to 100 µg/mL
4,Cc1ccc2c(c1)cc(/C=C/C(=O)c1ccccc1)c1nnnn12,6.25 to 100 µg/mL

# Now from value to compound:
row,MIC,Compound
1,3.12 to 100 µg/mL,Cc1ccc2c(c1)cc(C1CC(c3ccccc3)=NN1C(N)=S)c1nnnn12 (stereo not given)
2,3.12 to 100 µg/mL,Cc1ccc2cc(C3CC(c4ccccc4)=NN3C(N)=S)c3nnnn3c2c1 (stereo not given)
3,3.12 to 100 µg/mL,Cc1ccc2cc(C3CC(c4ccccn4)=NN3C(N)=S)c3nnnn3c2c1 (stereo not given)
4,3.12 to 100 µg/mL,Cc1ccc2cc(C3CC(c4cccs4)=NN3C(N)=S)c3nnnn3c2c1 (stereo not given)
5,3.12 to 100 µg/mL,Cc1ccc2cc(C3CC(c4ccc(Cl)cc4)=NN3C(N)=S)c3nnnn3c2c1 (stereo not given)
6,3.12 to 100 µg/mL,Cc1ccc2c(c1)cc(C1CC(c3cccs3)=NN1C(N)=S)c1nnnn12 (stereo not given)
